{"source": "ChEMBL document CHEMBL5131454", "about": "“Exploratory studies on soluble small molecule CD4 mimics as HIV entry inhibitors” (Bioorg Med Chem, 2022)", "key": {"[1]": {"test": "(§1) Cytotoxicity against human TZM-bl cells assessed as reduction in cell viability by CellTiter-Glo 2.0 assay", "type": "toxicity, cell-based", "conditions": "TZM-bl cells"}, "[2]": {"test_system": "TZM", "test": "Cytotoxicity against human TZM-bl cells assessed as reduction in cell viability at <100 uM by CellTiter-Glo 2.0 assay", "type": "toxicity, cell-based"}, "[3]": {"test_system": "TZM", "test": "as §1", "type": "toxicity, cell-based", "conditions": "tzm"}, "[4]": {"test": "Aqueous solubility of the compound in PBS at pH 7.4 at 25 degC", "type": "physicochemical"}}, "data": [{"compound": "CC1(C)CC(NC(=O)C(=O)Nc2ccc(Cl)cc2)CC(C)(C)N1", "values": [{"measurement": "CC50", "setting": "[1]", "result": 177, "unit": "µM"}]}, {"compound": "CC1(C)CC(NC(=O)C(=O)Nc2ccc(F)nc2)CC(C)(C)N1", "values": [{"measurement": "CC50", "setting": "[1]", "result": "> 300", "unit": "µM"}]}, {"compound": "N=C(N)NCCCCC(=O)NCCN1CCC(NC(=O)C(=O)Nc2ccc(Cl)cc2)CC12CCCCC2.O=C(O)C(F)(F)F.O=C(O)C(F)(F)F", "note": "(configuration not stated)", "values": [{"measurement": "Activity", "setting": "[2]", "result": "Non-Toxic"}, {"measurement": "CC50", "setting": "[3]", "result": 201, "unit": "µM"}, {"measurement": "solubility", "setting": "[4]", "result": "> 16.4", "unit": "mM"}]}, {"compound": "N=C(N)NCCCCC(=O)NCCN1CCC(NC(=O)C(=O)Nc2ccc(Cl)cc2)CC12CCCCC2", "note": "(configuration not stated)", "values": [{"measurement": "Activity", "setting": "[2]", "result": "Non-Toxic"}, {"measurement": "CC50", "setting": "[3]", "result": "> 100", "unit": "µM"}, {"measurement": "solubility", "setting": "[4]", "result": 0.47, "unit": "mM"}]}, {"compound": "COCCOCCOCCOCCOCCOCCOCCOCCOCCOCCOCCOCCNC(=O)CCC(=O)N[C@@H](CCCNC(=N)N)C(=O)NCCN1CCC(NC(=O)C(=O)Nc2ccc(Cl)cc2)CC12CCCCC2.O=C(O)C(F)(F)F.O=C(O)C(F)(F)F", "note": "(some centres not stated)", "values": [{"measurement": "Activity", "setting": "[2]", "result": "Non-Toxic"}, {"measurement": "CC50", "setting": "[1]", "result": "> 300", "unit": "µM"}, {"measurement": "solubility", "setting": "[4]", "result": "> 13", "unit": "mM"}]}, {"compound": "N=C(N)NCCCCC(=O)NCCN1CCC(NC(=O)C(=O)Nc2cncc(F)c2)CC12CCCCC2.O=C(O)C(F)(F)F.O=C(O)C(F)(F)F.O=C(O)C(F)(F)F", "note": "(configuration not stated)", "values": [{"measurement": "Activity", "setting": "[2]", "result": "Non-Toxic"}, {"measurement": "CC50", "setting": "[1]", "result": "> 300", "unit": "µM"}, {"measurement": "solubility", "setting": "[4]", "result": "> 50", "unit": "mM"}]}, {"compound": "N=C(N)NCCCCC(=O)NCCN1CCC(NC(=O)C(=O)Nc2cncc(Cl)c2)CC12CCCCC2.O=C(O)C(F)(F)F.O=C(O)C(F)(F)F.O=C(O)C(F)(F)F", "note": "(configuration not stated)", "values": [{"measurement": "Activity", "setting": "[2]", "result": "Non-Toxic"}, {"measurement": "CC50", "setting": "[1]", "result": 279, "unit": "µM"}, {"measurement": "solubility", "setting": "[4]", "result": "> 50", "unit": "mM"}]}, {"compound": "N=C(N)NCCCCC(=O)NCCN1CCC(NC(=O)C(=O)Nc2ccc(F)nc2)CC12CCCCC2.O=C(O)C(F)(F)F.O=C(O)C(F)(F)F.O=C(O)C(F)(F)F", "note": "(configuration not stated)", "values": [{"measurement": "Activity", "setting": "[2]", "result": "Non-Toxic"}, {"measurement": "CC50", "setting": "[1]", "result": "> 100", "unit": "µM"}]}, {"compound": "COCCOCCOCCOCCOCCOCCOCCOCCOCCOCCOCCOCCNC(=O)CCC(=O)N[C@@H](CCCNC(=N)N)C(=O)NCCN1CCC(NC(=O)C(=O)Nc2ccc(F)nc2)CC12CCCCC2.O=C(O)C(F)(F)F.O=C(O)C(F)(F)F.O=C(O)C(F)(F)F", "note": "(some centres not stated)", "values": [{"measurement": "Activity", "setting": "[2]", "result": "Non-Toxic"}, {"measurement": "CC50", "setting": "[1]", "result": "> 100", "unit": "µM"}]}, {"compound": "N=C(N)NCCCCC(=O)NCCN1CCC(NC(=O)CNc2ccc(Cl)cn2)CC1.O=C(O)C(F)(F)F.O=C(O)C(F)(F)F.O=C(O)C(F)(F)F", "values": [{"measurement": "Activity", "setting": "[2]", "result": "Non-Toxic"}, {"measurement": "CC50", "setting": "[1]", "result": "> 300", "unit": "µM"}, {"measurement": "solubility", "setting": "[4]", "result": "> 50", "unit": "mM"}]}, {"compound": "N=C(N)NCCCCC(=O)NCCN1CCC(NC(=O)C(=O)Nc2ccc(Cl)cn2)CC1.O=C(O)C(F)(F)F.O=C(O)C(F)(F)F.O=C(O)C(F)(F)F", "values": [{"measurement": "Activity", "setting": "[2]", "result": "Non-Toxic"}, {"measurement": "CC50", "setting": "[1]", "result": "> 300", "unit": "µM"}, {"measurement": "solubility", "setting": "[4]", "result": "> 50", "unit": "mM"}]}]}
